Measurements from ChEMBL document CHEMBL4196003, “The selectivity and bioavailability improvement of novel oral anticoagulants: An overview” (Eur J Med Chem, 2018).
Converted amounts (≈) assume the structure as drawn.

Columns and labels:
Coagulation factor X [1] = target: T1, Coagulation factor X (Homo sapiens, UniProt P00742)
[2] = target: T2, Coagulation factor VII/tissue factor (Homo sapiens, UniProt P08709); type: protein-complex assay
Prothrombin [3] = target: T3, Prothrombin (Homo sapiens, UniProt P00734)
Trypsin [4] = target: T4, Trypsin (Homo sapiens, UniProt P07477+P07478+P35030); type: protein assay
Description: Inhibition of human trypsin assessed as release of p-nitroanilide from chromogenic substrate

Plasma = type: functional, Homo sapiens
Description: Anticoagulant activity in human plasma assessed as concentration required to double activated partial thromboplastin time

[5] = cynomolgus monkey, plasma, iv, 0.4 mg/kg
Description: Plasma concentration in cynomolgus monkey at 400 ug/kg/min, iv

Coagulation factor X [6] = target: T1, Coagulation factor X; remark: listed apart in the source
Prothrombin [7] = target: T3, Prothrombin; remark: listed apart in the source
Description: Binding affinity to thrombin (unknown origin)

physchem = details: buffer, pH 7.4
Description: Aqueous solubility at pH 7.4

Trypsin [8] = target: T4, Trypsin; type: protein assay; remark: listed apart in the source
Description: Inhibition of trypsin (unknown origin)

Prothrombin [9] = target: T3, Prothrombin; remark: listed apart in the source
[10] = target: T2, Coagulation factor VII/tissue factor; type: protein-complex assay; remark: listed apart in the source
in vivo = details: dog, po, 1 mg/kg
Description: Half life in dog at 1 mg/kg, po

[11] = cynomolgus monkey, plasma, iv, 0.06 mg/kg
Description: Plasma concentration in cynomolgus monkey at 60 ug/kg/min, iv

T1 sequence (P00742 41-179 limits assumed): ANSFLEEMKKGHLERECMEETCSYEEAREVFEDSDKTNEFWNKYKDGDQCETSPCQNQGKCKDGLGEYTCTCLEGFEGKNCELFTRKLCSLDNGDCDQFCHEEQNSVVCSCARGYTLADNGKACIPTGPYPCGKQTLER
T1 sequence (P00742 235-488 limits assumed): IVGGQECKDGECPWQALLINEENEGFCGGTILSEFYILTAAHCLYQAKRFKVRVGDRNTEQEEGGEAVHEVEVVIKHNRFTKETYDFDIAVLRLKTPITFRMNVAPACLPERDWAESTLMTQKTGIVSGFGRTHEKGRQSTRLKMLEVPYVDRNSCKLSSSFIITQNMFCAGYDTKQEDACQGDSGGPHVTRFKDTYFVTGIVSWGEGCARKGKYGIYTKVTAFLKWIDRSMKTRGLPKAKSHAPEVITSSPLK
T2 sequence (P08709 61-212 limits assumed): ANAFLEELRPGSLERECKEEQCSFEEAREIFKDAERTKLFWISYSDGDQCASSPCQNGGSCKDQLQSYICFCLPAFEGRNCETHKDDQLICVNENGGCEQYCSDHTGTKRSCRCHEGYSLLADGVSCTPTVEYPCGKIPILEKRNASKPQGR
T2 sequence (P08709 213-466 limits assumed): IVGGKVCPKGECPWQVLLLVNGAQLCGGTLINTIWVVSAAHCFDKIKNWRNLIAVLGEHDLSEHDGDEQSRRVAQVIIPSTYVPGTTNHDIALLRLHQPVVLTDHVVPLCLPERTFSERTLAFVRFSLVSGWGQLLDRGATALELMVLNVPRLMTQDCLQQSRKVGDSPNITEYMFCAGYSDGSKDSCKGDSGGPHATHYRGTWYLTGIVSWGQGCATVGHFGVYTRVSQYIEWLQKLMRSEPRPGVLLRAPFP
T2 sequence (P13726 33-295 partner limits assumed): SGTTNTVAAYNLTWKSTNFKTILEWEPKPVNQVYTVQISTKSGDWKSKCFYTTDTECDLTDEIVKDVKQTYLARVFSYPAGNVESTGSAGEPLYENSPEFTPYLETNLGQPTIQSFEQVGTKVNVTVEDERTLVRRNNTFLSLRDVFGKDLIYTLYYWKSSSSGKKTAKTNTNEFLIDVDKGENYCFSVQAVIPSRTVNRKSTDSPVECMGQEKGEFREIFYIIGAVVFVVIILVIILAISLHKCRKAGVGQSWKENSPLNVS

For `O=c1oc(-c2ccccc2F)nc2cnccc12`, the IC50 (Coagulation factor X [1]) was 90 µM and the IC50 [2] was 2.6 µM.
With `O=c1oc(-c2ccccc2F)nc2ncccc12` the IC50 (Coagulation factor X [1]) was 32 µM, the IC50 [2] was 2.8 µM and the IC50 (Prothrombin [3]) was 14.4 µM.
With `Cc1nc(N)ccc1CNC(=O)Cn1c(C)ccc(NS(=O)(=O)Cc2ccccc2)c1=O` [L-374087] the Ki (Trypsin [4]) was 3.2 µM.
For `O=C(Cn1c(Cl)cnc(NCC(F)(F)c2cccc[n+]2[O-])c1=O)NCc1cc(Cl)ccc1-n1cnnn1`, the 2aPTT (Plasma) was 130 nM.
In the case of `O=c1oc(-c2c(F)cccc2F)nc2cc([N+](=O)[O-])ccc12`, the IC50 (Coagulation factor X [1]) is reported as 112 µM, the IC50 [2] is reported as 0.82 µM and the IC50 (Prothrombin [3]) is reported as over 200 µM.
Compound `O=c1oc(-c2c(F)cccc2F)nc2cnccc12` has an IC50 (Coagulation factor X [1]) of over 200 µM, an IC50 [2] of 1.3 µM and an IC50 (Prothrombin [3]) of over 200 µM.
In the case of `O=C(Cn1c(Cl)cnc(NCC(F)(F)c2cccc[n+]2[O-])c1=O)NCc1ncccc1Cl`, the 2aPTT (Plasma) is reported as 470 nM.
With `O=C(Cn1c(Cl)cnc(NCC(F)(F)c2ccccn2)c1=O)NCc1cc(Cl)ccc1-n1cncn1` the 2aPTT (Plasma) was 170 nM.
For `CC(C)Nc1nc(Cl)c(-c2cc(N)cc(C(=O)O)c2)n(CC(=O)NCc2ccc(C(=N)N)cc2)c1=O`, the Cp [5] was 107 µg/mL and the IC50 (Coagulation factor X [6]) was over 100 µM.
With `O=C(Cn1c(Cl)cnc(NCC(F)(F)c2ccccn2)c1=O)NCc1cc(Cl)ccc1-n1cnnn1` the 2aPTT (Plasma) was 180 nM and the Ki (Prothrombin [7]) was 1.4 to 1.5 pM.
`O=C(Cn1c(Cl)cnc(NCC(F)(F)c2cccc[n+]2[O-])c1=O)NCc1ncccc1F` gave a solubility (physchem) of 44 µg/mL (≈ 93.9 µM) and a 2aPTT (Plasma) of 540 nM.
For `Cc1ccccc1-c1nc2c(cnn2C)c(=O)o1`, the IC50 (Coagulation factor X [1]) was over 200 µM, the IC50 [2] was 18 µM and the IC50 (Prothrombin [3]) was 129 µM.
Compound `CCSc1ncc2c(=O)oc(-c3ccccc3F)nc2n1` has an IC50 (Coagulation factor X [1]) of over 200 µM, an IC50 [2] of 15 µM and an IC50 (Prothrombin [3]) of over 200 µM.
In the case of `Cc1nc(N)ccc1CNC(=O)Cn1c(C)cnc(NCC(F)(F)c2ccccn2)c1=O`, the Ki (Trypsin [8]) is reported as 0.8 µM and the 2aPTT (Plasma) is reported as 200 nM.
Compound `Cc1cnc(NCCc2ccccn2)c(=O)n1CC(=O)NCc1cc2cc[nH]c2cn1` has a Ki (Trypsin [4]) of 200 µM.
Work on `N=C(N)NCCC[C@H](NC(=O)[C@H](Cc1cccnc1)NC(=O)[C@H](Cc1ccccc1)NS(=O)(=O)c1ccccc1)C(=O)c1nccs1` yielded an IC50 (Prothrombin [9]) of 100 µM and an IC50 [10] of 0.2 µM.
With `O=c1oc(-c2c(F)cccc2F)nc2cc(C(F)(F)F)ccc12` the IC50 (Coagulation factor X [1]) was 174 µM, the IC50 [2] was 1.4 µM and the IC50 (Prothrombin [3]) was 134 µM.
`N#Cc1cnc(NCC(F)(F)c2ccccn2)c(=O)n1CC(=O)NCc1ncccc1F` showed a Ki (Trypsin [8]) of 213 µM, a half-life (in vivo) of 6.6 to 9.7 h and a 2aPTT (Plasma) of 410 nM.
For `Cc1nc(N)ccc1CNC(=O)Cn1c(C)cnc(NCCc2ccccc2)c1=O` [L-375378], the Cp [11] was 3 µg/mL.
`Cc1cnc(NCCc2ccccn2)c(=O)n1CC(=O)NCc1ccc2[nH]ccc2c1` gave a Ki (Trypsin [4]) of 290 µM.
In the case of `Cc1cnc(NCC(F)(F)c2ccccn2)c(=O)n1CC(=O)NCc1ncccc1F`, the Ki (Trypsin [8]) is reported as 252 µM and the 2aPTT (Plasma) is reported as 670 nM.
`Cc1cnc(NCCc2ccccc2)c(=O)n1CC(=O)NCc1ccc2[nH]ccc2c1` gave a Ki (Trypsin [4]) of over 100 µM.
`CC(C)Nc1ccc(-c2cccc(N)c2)c(CC(=O)NCc2ccc(C(=N)N)cc2)c1F` showed an IC50 (Coagulation factor X [6]) of over 30 µM.
Compound `O=C(Cn1c(Cl)cnc(NCC(F)(F)c2cccc[n+]2[O-])c1=O)NCc1cc(Cl)ccc1-n1cncn1` has a 2aPTT (Plasma) of 200 nM.
With `Cc1cnc(NCCc2ccccc2)c(=O)n1CC(=O)NCc1cc2cc[nH]c2cn1` the Ki (Trypsin [4]) was 95 µM.
Compound `O=C(Cn1c(Cl)cnc(NCC(F)(F)c2ccccn2)c1=O)NCc1ncccc1F` [DPOC-4088] has a Ki (Trypsin [8]) of 202 µM, a half-life (in vivo) of 6.6 to 9.7 h and a solubility (physchem) of 11 µg/mL (≈ 24.3 µM). It also gave a 2aPTT (Plasma) of 780 nM.
`O=c1oc(-c2ccccc2F)nc2nccnc12` showed an IC50 [2] of over 200 µM.
Compound `O=C(Cn1c(Cl)cnc(NCC(F)(F)c2cccc[n+]2[O-])c1=O)NCc1ccccc1F` has a 2aPTT (Plasma) of 400 nM.
